Results on 25 compounds are retold here after ChEMBL document CHEMBL4316589, “Attachment of a 5-nitrofuroyl moiety to spirocyclic piperidines produces non-toxic nitrofurans that are efficacious in vitro against multidrug-resistant Mycobacterium tuberculosis” (Eur J Med Chem, 2019).

In general, MIC refers to the lowest concentration that inhibits growth of the organism. Read a high MIC as weaker potency. As a reminder, the LD50 is the dose at which mortality reaches 50%.

Each structure is given as a SMILES string. ≈ marks a conversion by molar mass, not a printed value. Some results are limits rather than exact numbers.

For data set [1], the system named is ARPE-19. The experiment in a line: Cytotoxicity against human ARPE19 cells assessed as effect on cell viability at 100 uM after 48 hrs in normoxic condition by MTT assay. The class given is cell-based. The note with it: arpe-19, 48 h. For orientation: Formazan colour is commonly taken as a measure of viable cells.
Data set [2] relates to Mycobacterium tuberculosis. The experiment in a line: Antimycobacterial activity against drug-sensitive Mycobacterium tuberculosis H37Rv measured after 7 days by resazurin dye-based assay. In kind it is functional. The note with it: 168 h. Background: The colour change of resazurin is a common sign of viable cells or microbes.
Another data set concerns Pseudomonas aeruginosa. The experiment in a line: Antibacterial activity against Pseudomonas aeruginosa assessed as bacterial growth inhibition zone diameter at 5 ug after 18 hrs by Kirby-Bauer disk diffusion method. The class given is functional. The note with it: read-out: DIZ. In general terms: A growth-free zone around the sample is the usual read-out of agar diffusion tests.

Data set [3] in a line: Toxicity in C57BL6 mouse assessed as mortality at 900 mg/kg, po administered via metal gavage measured daily over 14 days. In kind it is organism-based. The note with it: in vivo, 336 h.
The subject of another data set is Staphylococcus aureus. Put plainly: Antibacterial activity against Staphylococcus aureus assessed as bacterial growth inhibition zone diameter at 5 ug after 18 hrs by Kirby-Bauer disk diffusion method. The conditions noted are these: read-out: DIZ. In kind it is functional.
Another data set concerns Enterococcus faecium. The experiment in a line: Antibacterial activity against Enterococcus faecium assessed as bacterial growth inhibition zone diameter at 5 ug after 18 hrs by Kirby-Bauer disk diffusion method. The class given is functional. The note with it: read-out: DIZ.
The subject of another data set is Klebsiella aerogenes. The experiment in a line: Antibacterial activity against Enterobacter aerogenes assessed as bacterial growth inhibition zone diameter at 5 ug after 18 hrs by Kirby-Bauer disk diffusion method. In kind it is functional. The conditions noted are these: read-out: DIZ.
Data set [4] is described as follows: Toxicity in C57BL6 mouse assessed as mortality at 400 mg/kg, po administered via metal gavage measured daily over 14 days. In kind it is organism-based. The note with it: in vivo, 336 h.
Another data set has as its system Klebsiella pneumoniae. Put plainly: Antibacterial activity against Klebsiella pneumoniae assessed as bacterial growth inhibition zone diameter at 5 ug after 18 hrs by Kirby-Bauer disk diffusion method. In kind it is functional. The conditions noted are these: read-out: DIZ.
Data set [5] in a line: Toxicity in po dosed C57BL6 mouse administered via metal gavage measured daily over 14 days. In kind it is organism-based. The note with it: in vivo.
For data set [6], the system named is ARPE-19. The experiment in a line: Cytotoxicity against human ARPE19 cells assessed as effect on cell viability at 10 to 100 uM after 48 hrs in normoxic condition by MTT assay. The class given is cell-based. The note with it: arpe-19, 48 h.
In another data set the test system is Acinetobacter baumannii. Put plainly: Antibacterial activity against Acinetobacter baumannii assessed as bacterial growth inhibition zone diameter at 5 ug after 18 hrs by Kirby-Bauer disk diffusion method. The conditions noted are these: read-out: DIZ. The class given is functional.

Consider `COc1ccc(CC2CCOC3(CCN(C(=O)c4ccc([N+](=O)[O-])o4)CC3)C2)cc1` (centres undefined), for which the Activity entry with ARPE-19 [1] is listed as “Toxic”. For the same compound, the lowest concentration to inhibit growth in data set [2] (MIC) was 3.1 µg/mL (≈ 7.48 µM).

For `Cc1cccc(S(=O)(=O)NC2CCOC3(CCN(C(=O)c4ccc([N+](=O)[O-])o4)CC3)C2)c1` (centres undefined), in data set [2], the minimal inhibitory concentration (MIC) stood at 50 µg/mL (≈ 108 µM).

The compound `CS(=O)(=O)NC1CCOC2(CCN(C(=O)c3ccc([N+](=O)[O-])o3)CC2)C1` (centres undefined) returned an MIC in data set [2] above 100 µg/mL.

With `Cl.NC1CCOC2(CCN(C(=O)c3ccc([N+](=O)[O-])o3)CC2)C1` (centres undefined), in data set [2], the minimal inhibitory concentration (MIC) was above 100 µg/mL.

Compound `O=C(c1ccc([N+](=O)[O-])o1)N1CCC2(CC1)CC(NS(=O)(=O)c1ccc(F)cc1)CCO2` (centres undefined) gave an MIC in [2] of 50 µg/mL (≈ 107 µM).

`CNC(=O)CC1CCOC2(CCN(C(=O)c3ccc([N+](=O)[O-])o3)CC2)C1` (centres undefined): the MIC in data set [2] was above 100 µg/mL.

Turning to `O=C(c1ccc([N+](=O)[O-])o1)N1CCC2(CC1)CC(Cc1nc(-c3cccnc3)no1)CCO2` (centres undefined), the zone of inhibition at 5 µg/disc with Pseudomonas aeruginosa, with Staphylococcus aureus, with Enterococcus faecium, with Klebsiella aerogenes, in the data set with Klebsiella pneumoniae and with Acinetobacter baumannii was 0 mm in each case. For the same compound, the values for the Activity result (in data set [3]; in data set [4]; in the data set with ARPE-19 [6]) were “Toxic”, “Non-Toxic” and “Non-Toxic”, respectively. This compound also returned a minimal inhibitory concentration (MIC) in [2] of 1.6 µg/mL (≈ 3.53 µM). The compound further yielded an LD50 at 336 h in data set [5] (C57BL6, mouse) of 617 mg/kg. The same compound gave an LD16 in [5] (mouse, 336 h) of 198 mg/kg. The LD84 in data set [5] (mouse, 336 h) was 787.5 mg/kg. For the same compound, the LD100 in data set [5] (mouse, 336 h) is 900 mg/kg.

As for `O=C(c1ccc([N+](=O)[O-])o1)N1CCC2(CCCCO2)CC1`, the minimal inhibitory concentration (MIC) in [2] was determined as 3.1 µg/mL (≈ 10.5 µM). For the same compound, in the data set with ARPE-19 [6], the Activity entry was “Non-Toxic”.

In turn, `O=C(c1ccc([N+](=O)[O-])o1)N1CCC2(CC1)CC(Oc1ccncc1)CCO2` (centres undefined) came in with a minimum inhibitory concentration (MIC) in data set [2] of 25 µg/mL (≈ 64.5 µM).

On to `COCCc1noc(CC2CCOC3(CCN(C(=O)c4ccc([N+](=O)[O-])o4)CC3)C2)n1` (centres undefined), for which the MIC in data set [2] was found to be 6.2 µg/mL (≈ 14.3 µM). Moreover, the Activity entry in the data set on ARPE-19 [6] was “Non-Toxic”.

On to `O=C(c1ccc([N+](=O)[O-])o1)N1CCC2(CC1)CC(NS(=O)(=O)c1ccc(Br)cc1)CCO2` (centres undefined), for which, in [2], it took 25 µg/mL (≈ 47.3 µM) to inhibit growth (MIC).

In data set [2], `O=C(c1ccc([N+](=O)[O-])o1)N1CCC2(CC1)CC(Cc1ccc(F)cc1)CCO2` (centres undefined) yielded an MIC of 12.5 µg/mL (≈ 31.1 µM).

In data set [2], `O=C(c1ccc([N+](=O)[O-])o1)N1CCC2(CC1)CC(NS(=O)(=O)c1ccccc1F)CCO2` (centres undefined) showed a minimum inhibitory concentration (MIC) of 50 µg/mL (≈ 107 µM).

The compound `CCOC1CCOC2(CCN(C(=O)c3ccc([N+](=O)[O-])o3)CC2)C1` (centres undefined) registered a minimal inhibitory concentration (MIC) in data set [2] of 50 µg/mL (≈ 148 µM).

Compound `O=C(c1ccc([N+](=O)[O-])o1)N1CCC2(CC1)CC(NS(=O)(=O)c1ccccc1)CCO2` (centres undefined) showed an MIC in data set [2] of 50 µg/mL (≈ 111 µM).

For the compound `O=C(c1ccc([N+](=O)[O-])o1)N1CCC2(CC1)CC(OCc1ccc(F)cc1)CCO2` (centres undefined), in data set [2], the MIC was 3.1 µg/mL (≈ 7.41 µM). In addition, the Activity entry in the data set with ARPE-19 [6] is “Non-Toxic”.

In data set [2], `O=C(c1ccc([N+](=O)[O-])o1)N1CCC2(CC1)CC(OCC1CC1)CCO2` (centres undefined) gave an MIC of 25 µg/mL (≈ 68.6 µM).

`O=C(c1ccc([N+](=O)[O-])o1)N1CCC2(CC1)CC(N1CCOCC1)CCO2` (centres undefined) had an MIC in data set [2] above 100 µg/mL.

With `O=C(c1ccc([N+](=O)[O-])o1)N1CCC2(CC1)CC(Cc1nc(C3CC3)no1)CCO2` (centres undefined), 3.1 µg/mL (≈ 7.44 µM) was the least that counted as inhibitory in data set [2] (MIC). For the same compound, the Activity entry with ARPE-19 [6] was “Non-Toxic”.

`CC(C)(C)OC(=O)NC1CCOC2(CCN(C(=O)c3ccc([N+](=O)[O-])o3)CC2)C1` (centres undefined) showed an MIC in data set [2] of 25 µg/mL (≈ 61.1 µM).

Regarding `CN(Cc1ccccc1)C(=O)CC1CCOC2(CCN(C(=O)c3ccc([N+](=O)[O-])o3)CC2)C1` (centres undefined), the MIC in [2] worked out at 12.5 µg/mL (≈ 27.4 µM).

In the case of `Cc1ccc(CC2CCOC3(CCN(C(=O)c4ccc([N+](=O)[O-])o4)CC3)C2)cc1` (centres undefined), the Activity entry with ARPE-19 [1] is given as “Toxic”. In [2], this compound returned an MIC of 3.1 µg/mL (≈ 7.78 µM).

`COc1ccc(S(=O)(=O)NC2CCOC3(CCN(C(=O)c4ccc([N+](=O)[O-])o4)CC3)C2)cc1` (centres undefined): in [2], it took 50 µg/mL (≈ 104 µM) to inhibit growth (MIC).

In [2], `O=C(c1ccc([N+](=O)[O-])o1)N1CCC2(CC1)CC(NS(=O)(=O)c1ccc(F)c(Cl)c1)CCO2` (centres undefined) came in with an MIC of 25 µg/mL (≈ 49.8 µM).

As for `O=C(O)c1cn(C2CC2)c2cc(N3CCNCC3)c(F)cc2c1=O` [CIPROFLOXACIN], the zone of inhibition at 5 µg/disc with Pseudomonas aeruginosa was found to be 23 mm; in the data set on Staphylococcus aureus, 23 mm; in the data set with Enterococcus faecium it was 23 mm; in the data set with Klebsiella aerogenes, 25 mm; in the data set on Klebsiella pneumoniae it was 25 mm; with Acinetobacter baumannii it was 30 mm.
